This passage reports EC50 results from patent US12612388B2, “Receptor-interacting protein 1 inhibitors including piperazine heterocyclic amide ureas” (SIRONAX LTD., priority 2020, dated 2026).

The first experiment concerns HT-29 cells. Description: Cellular RIP1 inhibitory activity: necroptosis of HT-29 cells induced by TNF-α/SMAC mimetic/zVAD-FMK, CellTiter-Glo viability. It is filed as cell-based. Particulars: Homo sapiens, HT-29, 20 h, read-out: EC50 (Cell activity; Necrosis or Necroptosis Inhibitory Activity). The method, then:
In Table 2, activity is provided as follows: +++=0.1 nM≤EC50<100 nM; ++=100 nM≤EC50K<1000 nM; +=1000 nM≤EC50K<10000 nM.
Compounds 1-67 (denoted as Compound Nos. 1 through 67 in Table 1) of the disclosure were tested for binding and cellular RIP1 inhibitory activity following the experimental procedures described below.
Cell line: HT-29 (ATCC® HTB-38™)
Culture medium: McCOY's 5A, Gibco, Cat No. 16600-082
DMSO: Sigma, Cat No. 67-68-5, 1 L
Assay plate: Corning #3903
Compound dilution plate: Corning #3357
Inducers: TNFα, GenScript, Cat No. Z01001-50,
SmacM, Cat. No., HY-15989, MedChemExpress (MCE)
Z_VAD FMK, TargetMol, T6013
Cell Titer-Glo® Luminescent Cell Viability Assay Kit: Promega, Cat No. G7573
1. HT-29 cells were checked every day to make sure that they were healthy and growing as expected. They were subjected to sub-culturing when they were approximately 80% confluent.
2. The culture medium, McCOY's 5A medium (Gibco, Cat No. 16600-082) with 10% fetal bovine serum or FBS (Gibco, Cat No. 10099-141C), was pre-warmed in a 37° C. water bath for at least 30 min.
3. When the cells had reached a desired level of confluency of 80% in a T75 flask, the medium was aspirated, and the cells were washed with warm phosphate buffered saline or PBS two times.
4. 2-3 ml fresh warm trypsin (Gibco, Cat No. 25200-056) solution was added to the washed cells. The flask with the cells was transferred to a 37° C. incubator.
5. After 5 minutes, the side of the flask was tapped, and the flask was examined under a microscope for detachment of the cells to the flask. If necessary, the cells were kept in the incubator for an additional 5-10 minutes, with occasional tapping, until lifting was complete.
6. The trypsin reaction was neutralized by transferring 6-9 ml cell culture medium to sterile 15 ml conical tubes, and by centrifuging the cell culture at 300×g for 7 minutes to pellet the cells (supernatant decanted).
7. The cells were resuspended in fresh cell culture medium and the cell counting was performed using a hemocytometer.
8. 100 μl of the resuspended cell culture medium containing ˜5,000 cells were transferred into each well of the sterile 96-well cell culture plate (Corning 3903) and cultured overnight at 37° C. with 5% CO2.
Compound Titration and Treatment
1. All test compounds were dissolved in DMSO (Dimethyl sulfoxide) to create a 20 mM stock.
2. 3 μl of each compound 20 mM stock was mixed with 27 μl DMSO, and the compound solution was further diluted at a titration ratio of 1:3 (20 μl compound solution+40 μl DMSO) till the 10 points end.
3. All culture medium was removed from assay plates filled with HT-29 cell cultures. The cells were then washed with 1 PBS, and resuspended in fresh, FBS-free McCOY's 5A medium containing a cocktail of TNF-α (10 ng/ml), a SMAC mimetic compound (6 μM) and Z-VAD-fluoromethylketone or zVAD-FMK (10 μM) to stimulate the HT-29 cells to increase RIP1 kinase levels and necroptosis.
4. 0.5 μL of the diluted compound solution was added to the corresponding 96-well assay plates.
5. The assay plates were incubated for 20 hours at 37° C. with 5% CO2.
1. The CellTiter-Glo® Luminescent Cell Viability Assay was employed to detect the ATP levels of viable HT-29 cells.
2. The CellTiter-Glo® buffer and the lyophilized substrate were equilibrated to room temperature prior to use.
3. The CellTiter-Glo® substrate was resuspended with CellTiter-Glo® buffer, then mixed by gently vortexing to obtain a homogeneous solution.
4. 20 μl the enzyme/substrate mixture was transferred by multi-channel pipetting into 96-well assay plates.
5. The assay plates were placed on an orbital shaker and the contents were shaken for 3 minutes to induce cell lysis.
6. The assay plates were incubated at room temperature for 10 minutes to stabilize the luminescent signal.
7. The luminescence signals were read and recorded with EnVision.
8. The geometric mean EC50 values were calculated from 10 points response dose with duplicates. […]
With `O=C(c1ccnc(N2CCN(C(=O)N3N=CC[C@H]3c3cc(F)cc(F)c3)CC2)n1)N1CCC1` [Compound 36, (S)-azetidin-1-yl(2-(4-(5-(3,5-difluorophenyl)-4,5-dihydro-1H-pyrazole-1-carbonyl)piperazin-1-yl)pyrimidin-4-yl)methanone], the half-maximal effective concentration (EC50) fell in the range of 0.1 to 100 nM.

Staying with this experiment, now noted: Homo sapiens; HT-29 cells; TNF-α 10 ng/ml, SMAC mimetic 6 μM, zVAD-FMK 10 μM; 20 hours; geometric mean, 10 points, duplicates; read-out: EC50 (Cell activity; Necrosis or Necroptosis Inhibitory Activity).
For the molecule `COC1CN(C(=O)c2nc(N3CCN(C(=O)N4N=CC[C@H]4c4cncc(C#N)c4)CC3)ncc2F)C1` [Compound 53, (S)-5-(1-(4-(5-fluoro-4-(3-methoxyazetidine-1-carbonyl)pyrimidin-2-yl)piperazine-1-carbonyl)-4,5-dihydro-1H-pyrazol-5-yl)nicotinonitrile], the EC50 is 0.1 to 100 nM. On the same count and under the same terms, as for `CC(C)OC1CN(C(=O)c2ccnc(N3CCN(C(=O)N4N=CC[C@H]4c4cc(F)cc(F)c4)CC3)n2)C1` [Compound 37, (S)-(5-(3,5-difluorophenyl)-4,5-dihydro-1H-pyrazol-1-yl)(4-(4-(3-isopropoxyazetidine-1-carbonyl)pyrimidin-2-yl)piperazin-1-yl)methanone], the figure is 0.1 to 100 nM. On to `COC1(C)CN(C(=O)c2nc(N3CCN(C(=O)N4N=CC[C@H]4c4cc(F)cc(F)c4)CC3)ncc2F)C1` [Compound 22, (S)-(5-(3,5-difluorophenyl)-4,5-dihydro-1H-pyrazol-1-yl)(4-(5-fluoro-4-(3-methoxy-3-methylazetidine-1-carbonyl)pyrimidin-2-yl)piperazin-1-yl)methanone], for which the EC50 was 0.1 to 100 nM.

Consider `O=C(c1nc(N2CCN(C(=O)N3N=CC[C@H]3c3cc(F)cc(F)c3)CC2)ncc1F)N1CC2(COC2)C1` [Compound 14, (5-(3,5-difluorophenyl)-4,5-dihydro-1H-pyrazol-1-yl)(4-(5-fluoro-4-(2-oxa-6-azaspiro[3.3]heptane-6-carbonyl)pyrimidin-2-yl)piperazin-1-yl)methanone], for which the EC50 was in the range of 0.1 to 100 nM. As for `NC(=O)[C@H]1CCN(C(=O)c2nc(N3CCN(C(=O)N4N=CC[C@H]4c4cc(F)cc(F)c4)CC3)ncc2F)C1` [Compound 26, (S)-1-(2-(4-((S)-5-(3,5-difluorophenyl)-4,5-dihydro-1H-pyrazole-1-carbonyl)piperazin-1-yl)-5-fluoropyrimidine-4-carbonyl)pyrrolidine-3-carboxamide], the 50% effective concentration (EC50) was 0.1 to 100 nM. On the same count and under the same terms, as for `NC(=O)c1cncc(N2CCN(C(=O)N3N=CC[C@H]3c3cc(F)cc(F)c3)CC2)n1` [Compound 39, (S)-6-(4-(5-(3,5-difluorophenyl)-4,5-dihydro-1H-pyrazole-1-carbonyl)piperazin-1-yl)pyrazine-2-carboxamide], the figure is 100 to 1000 nM. For the molecule `O=C(c1nc(N2CCN(C(=O)N3N=CC[C@H]3c3cc(F)cc(F)c3)CC2)ncc1F)N1CC(O)C1` [Compound 13, (5-(3,5-difluorophenyl)-4,5-dihydro-1H-pyrazol-1-yl)(4-(5-fluoro-4-(3-hydroxyazetidine-1-carbonyl)pyrimidin-2-yl)piperazin-1-yl)methanone], the EC50 lay in the range of 0.1 to 100 nM.

In the case of `O=C(O)c1ccnc(N2CCN(C(=O)N3N=CC[C@H]3c3cc(F)cc(F)c3)CC2)n1` [Compound 44, (S)-2-(4-(5-(3,5-difluorophenyl)-4,5-dihydro-1H-pyrazole-1-carbonyl)piperazin-1-yl)pyrimidine-4-carboxylic acid], the half-maximal effective concentration (EC50) was in the range of 1000 to 10000 nM. The same measure, in the same setting: as for `NC(=O)c1cc(N2CCN(C(=O)N3N=CC[C@H]3c3cc(F)cc(F)c3)CC2)ncn1` [Compound 40, (S)-6-(4-(5-(3,5-difluorophenyl)-4,5-dihydro-1H-pyrazole-1-carbonyl)piperazin-1-yl)pyrimidine-4-carboxamide], the figure is 0.1 to 100 nM; as for `N#CC1CN(C(=O)c2nc(N3CCN(C(=O)N4N=CC[C@H]4c4cc(F)cc(F)c4)CC3)ncc2F)C1` [Compound 25, (S)-1-(2-(4-(5-(3,5-difluorophenyl)-4,5-dihydro-1H-pyrazole-1-carbonyl)piperazin-1-yl)-5-fluoropyrimidine-4-carbonyl)azetidine-3-carbonitrile], 0.1 to 100 nM; as for `COC1CN(C(=O)c2nc(N3CCN(C(=O)N4N=CC[C@H]4c4cncc(Cl)c4)CC3)ncc2Cl)C1` (stereo in doubt) [Compound 65, (5-chloro-2-(4-(5-(5-chloropyridin-3-yl)-4,5-dihydro-1H-pyrazole-1-carbonyl)piperazin-1-yl)pyrimidin-4-yl)(3-methoxyazetidin-1-yl)methanone], 0.1 to 100 nM. Still for that read-out and setting: as for `COC1CN(C(=O)c2nc(N3CCN(C(=O)N4N=CC[C@H]4c4cncc(F)c4)CC3)ncc2F)C1` [Compound 52, (S)-(5-fluoro-2-(4-(5-(5-fluoropyridin-3-yl)-4,5-dihydro-1H-pyrazole-1-carbonyl)piperazin-1-yl)pyrimidin-4-yl)(3-methoxyazetidin-1-yl)methanone], the figure is 0.1 to 100 nM; as for `N#CC=C1CN(C(=O)c2nc(N3CCN(C(=O)N4N=CC[C@H]4c4cc(F)cc(F)c4)CC3)ncc2F)C1` [Compound 57, (S)-2-(1-(2-(4-(5-(3,5-difluorophenyl)-4,5-dihydro-1H-pyrazole-1-carbonyl)piperazin-1-yl)-5-fluoropyrimidine-4-carbonyl)azetidin-3-ylidene)acetonitrile], 0.1 to 100 nM. As to `COC1CN(C(=O)c2nc(N3CCN(C(=O)N4N=CC[C@H]4c4cc(F)cc(C#N)c4)CC3)ncc2Cl)C1` [Compound 63, (S)-3-(1-(4-(5-chloro-4-(3-methoxyazetidine-1-carbonyl)pyrimidin-2-yl)piperazin-1-carbonyl)-4,5-dihydro-1H-pyrazol-5-yl)-5-fluorobenzonitrile], the half-maximal effective concentration (EC50) was 0.1 to 100 nM. The same measure, in the same setting: the result for `O=C(c1nc(N2CCN(C(=O)N3N=CC[C@H]3c3cc(F)cc(F)c3)CC2)ncc1F)N1CC(CN2CCCC2)C1` [Compound 10, (5-(3,5-difluorophenyl)-4,5-dihydro-1H-pyrazol-1-yl)(4-(5-fluoro-4-(3-(pyrrolidin-1-ylmethyl)azetidine-1-carbonyl)pyrimidin-2-yl)piperazin-1-yl)methanone] reads 0.1 to 100 nM. For the molecule `O=C(c1nc(N2CCN(C(=O)N3N=CC[C@H]3c3cc(F)cc(F)c3)CC2)ncc1F)N1CCOCC1` [Compound 18, (5-(3,5-difluorophenyl)-4,5-dihydro-1H-pyrazol-1-yl)(4-(5-fluoro-4-(morpholine-4-carbonyl)pyrimidin-2-yl)piperazin-1-yl)methanone], the concentration for a half-maximal effect (EC50) fell in the range of 0.1 to 100 nM. The same measure, in the same setting: the result for `CCN(C)C(=O)c1nc(N2CCN(C(=O)N3N=CC[C@H]3c3cc(F)cc(F)c3)CC2)ncc1F` [Compound 6, (S)-2-(4-(5-(3,5-difluorophenyl)-4,5-dihydro-1H-pyrazole-1-carbonyl)piperazin-1-yl)-N-ethyl-5-fluoro-N-methylpyrimidine-4-carboxamide] reads 0.1 to 100 nM. On the same count and under the same terms, as for `N#Cc1cc(F)cc([C@@H]2CC=NN2C(=O)N2CCN(c3ncc(F)c(C(=O)N4CC(C#N)C4)n3)CC2)c1` [Compound 54, (S)-1-(2-(4-(5-(3-cyano-5-fluorophenyl)-4,5-dihydro-1H-pyrazole-1-carbonyl)piperazin-1-yl)-5-fluoropyrimidine-4-carbonyl)azetidine-3-carbonitrile], the figure is 0.1 to 100 nM.
